In brackets after ≈: the same amount, converted by molar mass. Activity calls are given as the source filed them. No cut-off for these calls is given here.
What was measured:
Pseudomonas aeruginosa [1] = test: Antibacterial activity against Pseudomonas aeruginosa ATCC 27853 assessed as inhibition of bacterial growth incubated for 24 hrs; assay type: functional
Staphylococcus aureus [2] = test: Antibacterial activity against Staphylococcus aureus ATCC 25923 assessed as inhibition of bacterial growth incubated for 24 hrs; assay type: functional
Acinetobacter baumannii = test: Antibacterial activity against Acinetobacter baumannii clinical isolate assessed as inhibition of bacterial growth incubated for 24 hrs; assay type: functional
Staphylococcus aureus [3] = test: Antibacterial activity against methicillin resistant Staphylococcus aureus clinical isolate assessed as inhibition of bacterial growth incubated for 24 hrs; assay type: functional
Escherichia coli [4] = test: Antibacterial activity against Escherichia coli clinical isolate assessed as inhibition of bacterial growth incubated for 24 hrs; assay type: functional
Escherichia coli [5] = test: Antibacterial activity against Escherichia coli ATCC 25922 assessed as inhibition of bacterial growth incubated for 24 hrs; assay type: functional
Escherichia coli [6] = test: Potency index, ratio of ciprofloxacin MIC to test compound MIC for antibacterial activity against Escherichia coli ATCC 25922 assessed as inhibition of bacterial growth incubated for 24 hrs; assay type: functional
Staphylococcus aureus [7] = test: Antibacterial activity against Staphylococcus aureus ATCC 29213 assessed as inhibition of bacterial growth incubated for 24 hrs; assay type: functional
Klebsiella pneumoniae = test: Antibacterial activity against Klebsiella pneumoniae clinical isolate assessed as inhibition of bacterial growth incubated for 24 hrs; assay type: functional
Pseudomonas aeruginosa [8] = test: Antibacterial activity against Pseudomonas aeruginosa clinical isolate assessed as inhibition of bacterial growth incubated for 24 hrs; assay type: functional
Enterococcus faecalis [9] = test: Antibacterial activity against Enterococcus faecalis clinical isolate assessed as inhibition of bacterial growth incubated for 24 hrs; assay type: functional
Staphylococcus aureus [10] = test: Antibacterial activity against Staphylococcus aureus clinical isolate assessed as inhibition of bacterial growth incubated for 24 hrs; assay type: functional
Escherichia coli [11] = test: Potency index, ratio of norfloxacin MIC to test compound MIC for antibacterial activity against Escherichia coli ATCC 25922 assessed as inhibition of bacterial growth incubated for 24 hrs; assay type: functional
Streptococcus pyogenes [12] = test: Antibacterial activity against Streptococcus pyogenes ATCC 19615 assessed as inhibition of bacterial growth incubated for 24 hrs; assay type: functional
Staphylococcus aureus [13] = test: Antibacterial activity against Staphylococcus aureus ATCC 6538 assessed as inhibition of bacterial growth incubated for 24 hrs; assay type: functional
Calf thymus DNA [14] = test: Binding affinity to calf thymus DNA assessed as DNA-compound complex formation by measuring hypochromism at 0 to 2.3 x 10^-8mol/L by UV absorption spectra based analysis; assay type: nucleic-acid assay; settings: Bos taurus; dose 0-2.3 10^-8mol/L
Calf thymus DNA [15] = test: Binding affinity to calf thymus DNA assessed as disruption of DNA confirmation by measuring blue shift at 0 to 2.3 x 10^-8mol/L by UV absorption spectra based analysis; assay type: nucleic-acid assay; settings: Bos taurus; dose 0-2.3 10^-8mol/L
L02 = test: Cytotoxicity against human L02 cells assessed as reduction in cell viability at 0.78 to 25 ug/ml measured after 24 hrs by MTT assay; assay type: toxicity, cell-based; settings: l02, 24 h, dose 0.78-25 µg/ml
[16] = Cytotoxicity against HUVEC cells assessed as cell viability at 25 ug/ml measured after 24 hrs by MTT assay relative to control; assay type: toxicity, cell-based; settings: human, at 25 µg/mL, read-out: Activity
[17] = Cytotoxicity against human FHC assessed as inhibition of cell growth measured after 24 hrs by MTT assay; assay type: toxicity, cell-based; settings: FHC cells
Enterococcus faecalis [18] = test: Antibacterial activity against vancomycin-resistant Enterococcus faecalis clinical isolate p1-2007225053 assessed as inhibition of bacterial growth incubated for 24 hrs; assay type: functional
Calf thymus DNA [19] = test: Binding affinity to calf thymus DNA assessed as DNA-compound complex formation by measuring increase in absorption of DNA at 260 nm at 0 to 2.3 x 10^-8mol/L by UV absorption spectra based analysis; assay type: nucleic-acid assay; settings: Bos taurus; dose 0-2.3 10^-8mol/L
Staphylococcus aureus [20] = test: Antibacterial activity against Staphylococcus aureus CMCC(B)26003 assessed as inhibition of bacterial growth incubated for 24 hrs; assay type: functional
Streptococcus pyogenes [21] = test: Potency index, ratio of ciprofloxacin MIC to test compound MIC for antibacterial activity against Streptococcus pyogenes ATCC 19615 assessed as inhibition of bacterial growth incubated for 24 hrs; assay type: functional
[22] = Hemolytic activity in human Red blood cells at 32 ug/ml measured after 1.5 hrs by absorbance based assay relative to control; assay type: toxicity, cell-based, Erythrocyte; settings: red blood cells (erythrocytes), at 32 µg/mL, read-out: Activity
Enterococcus faecium = test: Antibacterial activity against Enterococcus faecium ATCC 19434 assessed as inhibition of bacterial growth incubated for 24 hrs; assay type: functional
Erythrocyte = test: Hemolytic activity in human Red blood cells assessed as concentration required for 5% hemolysis measured after 1.5 hrs by absorbance based assay; assay type: toxicity, cell-based
Staphylococcus aureus [23] = test: Antibacterial activity against Staphylococcus aureus ATCC 12600 assessed as inhibition of bacterial growth incubated for 24 hrs; assay type: functional
Pseudomonas aeruginosa [24] = test: Resistance development in Pseudomonas aeruginosa assessed as increase in MIC measured after 20 days; assay type: functional, organism-based; settings: time 20.0 day
Calf thymus DNA [25] = test: Competitive binding affinity to calf thymus DNA assessed as displacement of neutral red from DNA-neutral red complex by measuring reduction in absorbance at 540 nm at 0 to 2.1x10^-8 mol/L by UV absorption spectroscopy; assay type: nucleic-acid assay; settings: Bos taurus; dose 0-2.1 10^-8mol/L
Staphylococcus aureus [26] = test: Resistance development in methicillin resistant Staphylococcus aureus assessed as increase in MIC measured after 20 days; assay type: functional, organism-based; settings: time 20.0 day
[27] = Cytotoxicity against human normal Squamous epithelial cell (NOK) assessed as inhibition of cell growth measured after 24 hrs by MTT assay; assay type: toxicity, cell-based; settings: normal squamous epithelial cells (NOK)
[28] = system: Staphylococcus epidermidis; test: Antibacterial activity against Staphylococcus epidermidis ATCC 12228 assessed as inhibition of bacterial growth incubated for 24 hrs; assay type: functional
[29] = Cytotoxicity against human FHC assessed as cell viability at 20 ug/ml measured after 24 hrs by MTT assay relative to control; assay type: toxicity, cell-based; settings: FHC cells, at 20 µg/mL, read-out: Activity
Staphylococcus aureus [30] = test: Antibacterial activity against methicillin-resistant Staphylococcus aureus ATCC 43300 assessed as inhibition of bacterial growth incubated for 24 hrs; assay type: functional
Enterococcus faecalis [31] = test: Antibacterial activity against vancomycin-resistant Enterococcus faecalis clinical isolate p1-2007226001 assessed as inhibition of bacterial growth incubated for 24 hrs; assay type: functional
Streptococcus pyogenes [32] = test: Potency index, ratio of norfloxacin MIC to test compound MIC for antibacterial activity against Streptococcus pyogenes ATCC 19615 assessed as inhibition of bacterial growth incubated for 24 hrs; assay type: functional
HUVEC = test: Cytotoxicity against HUVEC cells assessed as reduction in cell viability at 0.78 to 25 ug/ml measured after 24 hrs by MTT assay; assay type: toxicity, cell-based; settings: human, dose 0.78-25 µg/ml
Staphylococcus aureus [33] = test: Antibacterial activity against Staphylococcus aureus CMCC(B)26001 assessed as inhibition of bacterial growth incubated for 24 hrs; assay type: functional
Streptococcus pneumoniae = test: Antibacterial activity against Streptococcus pneumoniae ATCC 6305 assessed as inhibition of bacterial growth incubated for 24 hrs; assay type: functional

C[C@H]1COc2c(CC(=O)O)c(F)cc3c(=O)c(C(=O)O)cn1c23
MIC (Pseudomonas aeruginosa [1]): 0.5 µg/mL (≈ 1.56 µM) | MIC (Staphylococcus aureus [2]): 32 µg/mL (≈ 99.6 µM) | MIC (Acinetobacter baumannii): 1 µg/mL (≈ 3.11 µM) | MIC (Staphylococcus aureus [3]): 1 µg/mL (≈ 3.11 µM) | MIC (Escherichia coli [4]): 0.5 µg/mL (≈ 1.56 µM) | MIC (Escherichia coli [5]): 0.25 µg/mL (≈ 0.778 µM) | Ratio (Escherichia coli [6]): 2 | MIC (Staphylococcus aureus [7]): 1 µg/mL (≈ 3.11 µM) | MIC (Klebsiella pneumoniae): 8 µg/mL (≈ 24.9 µM) | MIC (Pseudomonas aeruginosa [8]): 0.5 µg/mL (≈ 1.56 µM) | MIC (Enterococcus faecalis [9]): 1 µg/mL (≈ 3.11 µM) | MIC (Staphylococcus aureus [10]): 16 µg/mL (≈ 49.8 µM) | Ratio (Escherichia coli [11]): 16

N#CCc1cc2c(cc1F)c(=O)c(C(=O)O)cn2Cc1ccccc1Cl
MIC (Pseudomonas aeruginosa [1]): 0.5 µg/mL (≈ 1.35 µM) | MIC (Streptococcus pyogenes [12]): 0.25 µg/mL (≈ 0.674 µM) | MIC (Staphylococcus aureus [13]): 4 µg/mL (≈ 10.8 µM) | MIC (Staphylococcus aureus [2]): 0.25 µg/mL (≈ 0.674 µM) | MIC (Acinetobacter baumannii): 0.5 µg/mL (≈ 1.35 µM) | MIC (Staphylococcus aureus [3]): 256 µg/mL (≈ 690 µM) | MIC (Escherichia coli [4]): 0.25 µg/mL (≈ 0.674 µM) | Activity (Calf thymus DNA [14]): Active | Activity (Calf thymus DNA [15]): Active | Activity (L02): Non-Toxic | MIC (Escherichia coli [5]): 0.25 µg/mL (≈ 0.674 µM) | viability at 24 h, 25 ug/ml [16]: > 90% | IC50 at 24 h [17]: 141 µg/mL (≈ 380 µM) | MIC (Enterococcus faecalis [18]): 128 µg/mL (≈ 345 µM) | Activity (Calf thymus DNA [19]): Active | MIC (Staphylococcus aureus [20]): 0.125 µg/mL (≈ 0.337 µM) | Ratio (Streptococcus pyogenes [21]): 64 | hemolysis at 1.5 h, 32 ug/ml [22]: 4% | MIC (Enterococcus faecium): 4 µg/mL (≈ 10.8 µM) | HC5 (Erythrocyte): 64 µg/mL | MIC (Staphylococcus aureus [7]): 0.25 µg/mL (≈ 0.674 µM) | MIC (Staphylococcus aureus [23]): 128 µg/mL (≈ 345 µM) | Activity (Pseudomonas aeruginosa [24]): inactive | Activity (Calf thymus DNA [25]): Active | Activity (Staphylococcus aureus [26]): inactive | MIC (Klebsiella pneumoniae): 2 µg/mL (≈ 5.39 µM) | IC50 at 24 h [27]: 1.38 µg/mL (≈ 3.72 µM) | MIC [28]: 0.25 µg/mL (≈ 0.674 µM) | viability at 24 h, 20 ug/ml [29]: > 80% | MIC (Pseudomonas aeruginosa [8]): 0.25 µg/mL (≈ 0.674 µM) | MIC (Staphylococcus aureus [30]): 4 µg/mL (≈ 10.8 µM) | MIC (Enterococcus faecalis [9]): 256 µg/mL (≈ 690 µM) | MIC (Enterococcus faecalis [31]): 64 µg/mL (≈ 173 µM) | Ratio (Streptococcus pyogenes [32]): 128 | Activity (HUVEC): Non-Toxic | MIC (Staphylococcus aureus [33]): 0.25 µg/mL (≈ 0.674 µM) | MIC (Staphylococcus aureus [10]): 256 µg/mL (≈ 690 µM) | MIC (Streptococcus pneumoniae): 16 µg/mL (≈ 43.2 µM)

From ChEMBL document CHEMBL5506059, “Cyanomethylquinolones as a New Class of Potential Multitargeting Broad-Spectrum Antibacterial Agents” (J Med Chem, 2024)
